Results as given in patent US20120003270A1, “6-SUBSTITUTED ISOFLAVONOID COMPOUNDS AND USES THEREOF” (priority 2008, published 2012).

Experiments:
[1] = tested on: low density lipoprotein (LDL); experiment: Cu2+-induced oxidation of LDL (FOX assay); type: biochemical; set-up: lipid peroxide formation: unit not given here
Protocol: Blood was collected by venipuncture and plasma separated by centrifugation. LDL was then isolated from plasma using a 4-step sodium chloride density gradient and ultracentrifuged at 200,000 g for 20 hours at 4° C. The collect LDL was purified by passage through gel filtration PD10 column to remove excess salt and EDTA, and stored in the dark at 4° C. to prevent auto-oxidation and used with two weeks of isolation. The LDL cholesterol content was measure using a standard enzymatic method and protein concentration determined by the Lowry method using BSA as the standard.
On the day of each experiment a 2 mL aliquot of LDL was passed through a second PD10 column and diluted with chelex treated PBS (100 mM) to give a standard protein concentration of 0.1 mg/mL, ie final concentration per reaction. Oxidation reactions were initiated by the addition of freshly prepared Cu^2+ solution, such that the final concentration of CuSO4 was 5 μM. […] The extent of lipoprotein oxidation was determined by measuring the formation of lipid-peroxides on aliquots removed every 30-minute over a 3-hour period. Peroxides were determined at each time point by the ferrous oxidation-xylenol orange (FOX) assay using standard hydrogen peroxide curve (5 to 200 μM). Compound (1) was examined in at least two separate experiments performed on separate days.

[2] = tested on: splenocytes (T and B cells); experiment: Mitogen-stimulated splenocyte proliferation (MTT); type: cell-based, mouse; details: 10 μM, 3 day incubation, ConA or LPS
Protocol: (§1) Male Skh-1:HR1 (hairless) mice, approximately six weeks old were killed by cervical dislocation. Single cell suspensions were made from the spleen and erythrocytes were lysed in buffer (0.14M NH4Cl, 17 mM Tris, pH 7.2). The remaining splenocytes were cultured in RPMI-1640 (Gibco) supplemented with 10% (v:v) FBS, 200 mM L-glutamine, penicillin/streptomycin and […] 2-mercaptoethanol. Splenocytes were added to quadruplicate wells containing either concanavalin A (ConA, Sigma-Aldrich—0.4 μg/well), LPS (Sigma-Aldrich—1 μg/well) or no mitogen, as well 10 μM of test compound in DMSO. Samples were analysed after a 3 day incubation at 37° C. in 5% CO2 in air. Methylthiazoletetrazolium (MTT) is bioreduced by viable cells into a coloured formazan product that is soluble in DMSO. Thus the quantity of formazan product is directly proportional to the number of living cells in culture, and can be measured using a spectrophotometer at 570 nm. MTT was added to each well, incubated for a further 4 hrs and then colour developed with 0.04N HCl in isopropanol. Culture supernatants were stored after collection at −80° C. and both T and B cells analysed by ELISA (BD Biosciences) for IFN-γ (a Th-1 cytokine) and for T cells alone, IL-6 (a Th-2 cytokine).

HCAECs = experiment: HCAEC cell viability; type: cell-based, human; details: 10 μM, 24 hr incubation
red blood cells (RBC) = experiment: Peroxyl radical (AAPH)-induced red blood cell lysis; type: cell-based; details: test compounds at 1 μM; AAPH 150 mM; vehicle 40.0
Protocol: Freshly collected heparinised venous blood (10 ml, on ice) was aliquotted into 1.8 ml sterile eppendorf tubes and centrifuged for 10 minutes at 2600 rpm at 4° C. Plasma and buffy coat layers were removed (approximately 900 μl) and packed red blood cells (RBC) were then washed by the addition of 900 μl of sterile, ice cold PBS. This washing procedure was repeated twice. Packed RBC were resuspended by the addition of 900 μl of ice-cold, sterile PBS (and termed RBC stock). RBC stocks were stored at 4° C. for a maximum of three days. All working suspensions of RBC were prepared fresh daily by diluting 200 μl of RBC stock into 10 ml of ice-cold, sterile PBS and 50 μl added to each well.
Stocks of AAPH were freshly prepared for individual experiments as follows. […] Turbidity of RBC suspensions were monitored using a Tecan microplate reader at 690 nm (37° C.) with gentle vortexing. Assays were performed in quadruplicate and readings were taken every 5 minutes over 5 hours. RBC lysis curves were constructed by plotting absorbance (mean of 4 readings) against time. Time to half-lysis was calculated by taking the highest absorbance reading (no lysis) and the lowest absorbance reading (maximum lysis). The sum of these two readings divided by two gave the absorbance at half-lysis. Simple regression analysis was used to calculate the time at which half-lysis absorbance occurred.

IFN-γ and IL-6 = experiment: Splenocyte cytokine production (ELISA); type: cell-based, mouse; details: 10 μM, 3 day incubation, culture supernatant
Protocol: as §1

[3] = Free radical scavenging (DPPH); type: biochemical; details: DPPH 0.1 mM, 20 minutes, 517 nm; read-out: Free radical scavenging ability EC50
Protocol: The antioxidant (free radical trapping) activity of test compounds was assessed using the stable free radical compound 2,2-diphenyl-1-picrylhydrazyl (DPPH). A stock solution of DPPH was prepared at a concentration of 0.1 mM in ethanol and mixed for 10 minutes prior to use. Compound (1) was reacted with DPPH for 20 minutes, after which time the absorbance at 517 nm was determined. The change in absorbance at 517 nm was compared to a reagent blank (DPPH with ethanol alone). The IC50 value was estimated as the concentration of the test compound that caused a 0.6 change in absorbance (with 1.2 absorbance units representing total scavenging of the DPPH radical).

Q: What does the source list for `O=C(O)C1CCCN1Cc1cc2c(cc1O)OCC(c1ccc(O)cc1)=C2` (stereo not drawn) [Compound (3)]?
A: lipid peroxide formation ([1]; Compound (3) 10 μM + Cu++ 5 μM, no LDL, 0 min): 2.36 ± 5.25; lipid peroxide formation ([1]; Compound (3) 10 μM + Cu++ 5 μM, no LDL, 30 min): −3.75 ± 3.02; lipid peroxide formation ([1]; Compound (3) 10 μM + Cu++ 5 μM, no LDL, 60 min): −1.38 ± 2.64; lipid peroxide formation ([1]; Compound (3) 10 μM + Cu++ 5 μM, no LDL, 90 min): −0.82 ± 2.31; lipid peroxide formation ([1]; Compound (3) 10 μM + Cu++ 5 μM, no LDL, 120 min): −2.48 ± 2.55; lipid peroxide formation ([1]; Compound (3) 10 μM + Cu++ 5 μM, no LDL, 150 min): −6.22 ± 6.83; IC50 ([1]; LDL 0.1 mg/mL, CuSO4 5 μM, read-out: IC50, concentration at which 50% of the LDL oxidation was inhibited): 0.5 µM; lipid peroxide formation ([1]; LDL 0.1 mg/ml + compound (3) 0.01 μM + Cu++ 5 μM, 0 min): 5.55 ± 0.22; lipid peroxide formation ([1]; LDL 0.1 mg/ml + compound (3) 0.01 μM + Cu++ 5 μM, 30 min): 2.85 ± 2.80; lipid peroxide formation ([1]; LDL 0.1 mg/ml + compound (3) 0.01 μM + Cu++ 5 μM, 60 min): 25.92 ± 13.53; lipid peroxide formation ([1]; LDL 0.1 mg/ml + compound (3) 0.01 μM + Cu++ 5 μM, 90 min): 88.97 ± 3.03; lipid peroxide formation ([1]; LDL 0.1 mg/ml + compound (3) 0.01 μM + Cu++ 5 μM, 120 min): 131.94 ± 4.81; lipid peroxide formation ([1]; LDL 0.1 mg/ml + compound (3) 0.01 μM + Cu++ 5 μM, 150 min): 137.86 ± 26.03; lipid peroxide formation ([1]; LDL 0.1 mg/ml + compound (3) 0.1 μM + Cu++ 5 μM, 0 min): 5.62 ± 0.85; lipid peroxide formation ([1]; LDL 0.1 mg/ml + compound (3) 0.1 μM + Cu++ 5 μM, 30 min): 3.24 ± 1.93; lipid peroxide formation ([1]; LDL 0.1 mg/ml + compound (3) 0.1 μM + Cu++ 5 μM, 60 min): 18.89 ± 7.84; lipid peroxide formation ([1]; LDL 0.1 mg/ml + compound (3) 0.1 μM + Cu++ 5 μM, 90 min): 73.79 ± 1.40; lipid peroxide formation ([1]; LDL 0.1 mg/ml + compound (3) 0.1 μM + Cu++ 5 μM, 120 min): 138.28 ± 2.75; lipid peroxide formation ([1]; LDL 0.1 mg/ml + compound (3) 0.1 μM + Cu++ 5 μM, 150 min): 155.66 ± 21.85; lipid peroxide formation ([1]; LDL 0.1 mg/ml + compound (3) 1.0 μM + Cu++ 5 μM, 0 min): 7.38 ± 2.69; lipid peroxide formation ([1]; LDL 0.1 mg/ml + compound (3) 1.0 μM + Cu++ 5 μM, 30 min): −2.09 ± 9.59; lipid peroxide formation ([1]; LDL 0.1 mg/ml + compound (3) 1.0 μM + Cu++ 5 μM, 60 min): 7.21 ± 4.53; lipid peroxide formation ([1]; LDL 0.1 mg/ml + compound (3) 1.0 μM + Cu++ 5 μM, 90 min): 7.13 ± 3.76; lipid peroxide formation ([1]; LDL 0.1 mg/ml + compound (3) 1.0 μM + Cu++ 5 μM, 120 min): 11.69 ± 7.30; lipid peroxide formation ([1]; LDL 0.1 mg/ml + compound (3) 1.0 μM + Cu++ 5 μM, 150 min): 79.63 ± 27.82; lipid peroxide formation ([1]; LDL 0.1 mg/ml + compound (3) 10 μM + Cu++ 5 μM, 0 min): 1.62 ± 4.14; lipid peroxide formation ([1]; LDL 0.1 mg/ml + compound (3) 10 μM + Cu++ 5 μM, 30 min): 2.59 ± 2.96; lipid peroxide formation ([1]; LDL 0.1 mg/ml + compound (3) 10 μM + Cu++ 5 μM, 60 min): 5.65 ± 2.55; lipid peroxide formation ([1]; LDL 0.1 mg/ml + compound (3) 10 μM + Cu++ 5 μM, 90 min): 4.40 ± 1.13; lipid peroxide formation ([1]; LDL 0.1 mg/ml + compound (3) 10 μM + Cu++ 5 μM, 120 min): 3.57 ± 2.23; lipid peroxide formation ([1]; LDL 0.1 mg/ml + compound (3) 10 μM + Cu++ 5 μM, 150 min): 4.15 ± 2.87; Effect on splenocyte (T and B cell) numbers [2]: little effect on cell numbers; Cell viability (HCAECs): cell viability was unaffected; Time taken to reach half-lysis, time (red blood cells (RBC)): 88.6 min; Effect on cytokine synthesis (INF-γ, IL-6) (IFN-γ and IL-6): did decrease the cytokines produced by T cells in particular; EC50 [3]: 13.6 µM
